For series [1], the system named is MCF-7 breast cancer cells. Put plainly: WST-1 based proliferation assay, MCF-7. The format is cell-based, human. Conditions: MCF-7 (ER+, PIK3CA mutation); WST-1 absorbance 450 nm, days 1-5; compound A′ 50/500 nM, compound B 1600/800 Bq/ml. As for the experimental part:
(§1) The effects of PI3K inhibitor compound A′ and compound B in MCF-7 and 4T1 breast cancer cells and PC-3 and LNCaP prostate cancer cells were investigated in vitro as single agent and in combination. The effects were studied by measuring cell proliferation and apoptosis. Compound B and the reference inhibitor doxorubicin were added at day 0. The PI3K inhibitors were added at day −1 (24 hours before addition of Alpharadin) and at day 4. The following two concentrations of the inhibitors and two concentrations of radium 223 in 4 replicates were tested:
(§2) The effects on cell proliferation were studied using a WST-1 based proliferation assay and the effects on apoptosis were studied in parallel plates by measuring caspase 3/7 activity. The measurements were performed at 4 different time points, days 1, 2, 3 and 5. Caspase activity was normalized to the cell number obtained with the WST-1 assay in parallel plates.
(§3) (A) The results are shown as Absorbance (450 nm) measured in the WST-1 proliferation assay (MEAN). (B) The results are shown as Caspase 3/7/WST-1 values (MEAN). […] (B) The effects of PI3K inhibitor compound A′ and Radium 223 on MCF-7 cell caspase 3/7 activity at days 2. The results are shown as Caspase 3/7/WST-1 values (MEAN+SEM).
(Tetrazolium assays rely on reduction of a dye to a coloured formazan, in cell work by metabolically active cells.)

The subject of series [2] is MCF-7 breast cancer cells. Put plainly: Apoptosis by caspase 3/7 activity, MCF-7. The format is cell-based, human. The settings on record: day 2, caspase activity normalized to WST-1 cell number. As for the experimental part:
as §1, §2, §3

The subject of another series is 4T1 breast cancer cells. Put plainly: WST-1 based proliferation assay, 4T1. The series is classed as cell-based, mouse. As to the method: as §1, §2
(§4) The results are shown as Absorbance (450 nm) measured in the WST-1 proliferation assay (MEAN).

For series [3], the system named is LNCaP prostate cancer cells. Put plainly: WST-1 based proliferation assay, LNCaP. The format is cell-based, human. As to the method: as §1, §2
(A) The results are shown as Absorbance (450 nm) measured in the WST-1 proliferation assay (MEAN).

Series [4] deals with PC-3 prostate cancer cells. Put plainly: WST-1 based proliferation assay, PC-3. The format is cell-based, human. The settings on record: PC3 (AR-negative, PTEN loss); WST-1 absorbance 450 nm, days 1-5; compound A′ 50/500 nM, compound B 1600/800 Bq/ml. As to the method:
as §1, §2, §4

For series [5] the following is noted: phase 1 and 2 studies; patients with bone metastases; cited from earlier work.
Series [6] has as its system CRPC (Castration Resistant Prostate Cancer) and bone metastases. The settings on record: cited from earlier work.
The conditions of series [7]: single doses up to 250 kBq per kg body weight; cited from earlier work.
A further series has as its system CRPC and bone metastases. The settings on record: Phase 2 studies; cited from earlier work.
Where [8] appears, read: LNCaP (AR-positive, PTEN loss), WST-1 absorbance 450 nm, days 1-5.
Where [9] appears, read: WST-1 absorbance 450 nm, days 1-5, compound A′ 100/1000 nM, compound B 1600/800 Bq/ml.
The mark [10] stands for this setting: ALSYMPCA trial, patients with CRPC and bone metastases.

Structures are written as SMILES.

Take `COc1c(OCCCN2CCOCC2)ccc2c1N=C(NC(=O)c1cnc(N)nc1)N1CCN=C21.Cl.Cl` [compound A′, 2-amino-N-[7-methoxy-8-(3-morpholin-4-ylpropoxy)-2,3-dihydroimidazo[1,2-c]quinazolin-5-yl]pyrimidine-5-carboxamide dihydrochloride]: the “inhibition of tumor cell proliferation” value is recorded as “potent anti-proliferative activity” in [1], “only moderate inhibition of tumor cell proliferation” in the series on 4T1 breast cancer cells (lower (100 nM) dose), “strong anti-proliferative effects” in [3] (setting [8]) and “better anti-proliferactive activity” in series [4]. Further, the “apoptosis / tumor cell death induction (caspase 3/7 / WST-1)” value in series [2] is recorded as “only at high dose can induce apoptosis”.

Regarding `COc1cccc2c1C(=O)c1c(O)c3c(c(O)c1C2=O)C[C@@](O)(C(=O)CO)C[C@@H]3O[C@H]1C[C@H](N)[C@H](O)[C@H](C)O1` [doxorubicin], the “inhibition of tumor cell proliferation” value (in series [1]; in the series on 4T1 breast cancer cells (setting [9]); in series [3] (setting [8]); in [4]) was “inhibited proliferation” in each case.

Consider `[Cl][223Ra][Cl]` [compound B, radium-223 dichloride], for which the “inhibition of tumor cell proliferation” value in series [1] is reported as “only slight inhibition of tumor cell proliferation”; in the series with 4T1 breast cancer cells (setting [9]) it was “only moderate inhibition of tumor cell proliferation”; with 4T1 breast cancer cells (higher dose) it was “strong anti-proliferative effects”; in series [3] (LNCaP, high dose (1600 Bq/mL)) it was “effective”; in series [4] it was “moderate inhibition of tumor cell proliferation”. For the same molecule, in series [2], the “apoptosis / tumor cell death induction (caspase 3/7 / WST-1)” value was “could not induce tumor cell death”. In addition, the safety profile entry in series [5] is “favorable safety profile, with minimal myelotoxicity”. Moreover, the “median survival longer than placebo” value in series [6] (setting [10]) is 2.8 months. In addition, the “reduction in risk of death compared with placebo” value in [6] (setting [10]) is recorded as 30.5%. Further, the “time to first skeletal-related event” value in series [6] (ALSYMPCA trial, versus placebo) is reported as “significantly prolonged”. In addition, the median overall survival result in series [6] (Phase III clinical trials) was “Significant increase in median overall survival”. Also, the “cases of grade 3 neutropenia” value in [7] is recorded as “⅕”. The observed adverse reactions entry in [7] is “diarrhea and reversible myelosuppression”. Further, the “pain and disease-related biomarkers (bone ALP, PSA)” value in the series with CRPC and bone metastases is recorded as “reduces pain, improves disease-related biomarkers”.

The record behind these values is US10117874B2, “Combination of PI3K-inhibitors” (BAYER PHARMA AKTIENGESELLSCHAFT, priority 2013, dated 2018).
